Results on six compounds are retold here after patent US20220281865A1, “DIHYDROPYRIMIDINE DERIVATIVES AND USES THEREOF IN THE TREATMENT OF HBV INFECTION OR OF HBV-INDUCED DISEASES” (Janssen Sciences Ireland Unlimited Company, priority 2019, published 2022).

In one data set the test system is HBV. Kind of data set: Anti-HBV activity in HepG2.2.15 cells (HBV DNA in culture medium by qPCR). In kind it is cell-based. The following applies: Hepatitis B virus, 144 h, 6 days treatment. The method, then:
(§1) HepG2.2.15 (the HepG2.2.15 cell line can be produced by transfection of the HepG2 cell line as described in Sells, Chen, and Acs 1987 (Proc. Natl. Acad. Sci. USA 84: 1005-1009), and the HepG2 cell line is available from ATCC® under number HB-8065™)
(§2) HepG2.2.15 cells were plated into 96-well plate in 2% FBS culture medium at the density of 40,000 cells/well and 5,000 cells/well for HBV inhibitory activity and cytotoxicity determination, respectively. After incubation at 37° C., 5% CO2 overnight, cells were treated with medium containing compounds for 6 days with medium and compounds refreshed after 3 days of treatment. Each compound was tested in a 1:3 serial dilutions at 8 different concentrations in triplicate. The highest concentration of the compounds was 10 uM or 1 uM for anti-HBV activity assay and 100 uM for cytotoxicity determination.
The change of HBV DNA level induced by the compounds was assessed by quantitative real-time polymerase chain reaction (qPCR). Briefly, the HBV DNA in the culture medium was extracted using QIAamp 96 DNA Blood Kit according to the manual and then quantified by real-time PCR assay using the primers and probe in the table 1 below.
(§3) EC50 and CC50 values are calculated by the GRAPHPAD PRISM software.
A general note: Quantitative PCR measures a nucleic acid by following its amplification.

Data set [1] can be described thus: Cytotoxicity determination in HepG2.2.15 cells (CCK-8 cell viability). In kind it is cell-based. The following applies: human, 6 days treatment, CCK-8 assay. Here is the method: as §1, §2
Cell viability was determined by CCK-8 assay. After 6 days of compounds treatment, 20 μl CCK-8 reagents were added to each well of cytotoxicity assay plates. Cell plates were incubated at 37° C., 5% CO2 for 2.5 h. The absorbance at 450 nm wavelength and the absorbance at 630 nm wavelength as reference was measured.
as §3

Usually EC50 stands for the concentration giving half of the maximal effect. In general, CC50 refers to the concentration at which the toxic effect on the cells reaches its halfway point. High values mean lower toxicity to the cells, low ones greater toxicity to the cells.

SMILES strings stand for the structures.

`CCOC(=O)C1=C(CN2CC(F)(F)[C@H]3CCN(CC(C)(C)C(=O)O)C(=O)[C@H]32)NC(c2nccs2)=N[C@H]1c1cccc(F)c1C` (single isomer, unassigned) [Compound I-1, 3-((3aS*,7aS*)-1-(((S)-5-(ethoxycarbonyl)-6-(3-fluoro-2-methylphenyl)-2-(thiazol-2-yl)-3,6-dihydropyrimidin-4-yl)methyl)-3,3-difluoro-7-oxohexahydro-1H-pyrrolo[2,3-c]pyridin-6(2H)-yl)-2,2-dimethylpropanoic acid] had an EC50 in the data set on HBV of 0.06 µM. In data set [1], this compound had a CC50 at 6 days of 32 µM.
As for `CCOC(=O)C1=C(CN2CC(F)(F)[C@H]3CC(=O)N(CC(C)(C)C(=O)O)C[C@H]32)NC(c2nccs2)=N[C@H]1c1cccc(F)c1C` (single isomer, unassigned) [Compound I-2, 3-((3aS*,7aS*)-1-(((S)-5-(ethoxycarbonyl)-6-(3-fluoro-2-methylphenyl)-2-(thiazol-2-yl)-3,6-dihydropyrimidin-4-yl)methyl)-3,3-difluoro-5-oxohexahydro-1H-pyrrolo[2,3-c]pyridin-6(2H)-yl)-2,2-dimethylpropanoic acid], the response in the data set with HBV was half-maximal at 0.034 µM (EC50). Moreover, in data set [1], the CC50 at 6 days worked out at 50.4 µM.
The compound `CCOC(=O)C1=C(CN2CC(F)(F)[C@H]3CCN(C(=O)C(C)(C)C(=O)O)C[C@H]32)NC(c2nccs2)=N[C@H]1c1cccc(F)c1C` (single isomer, unassigned) [Compound I-3, 3-((3aS*,7aS*)-1-(((S)-5-(ethoxycarbonyl)-6-(3-fluoro-2-methylphenyl)-2-(thiazol-2-yl)-3,6-dihydropyrimidin-4-yl)methyl)-3,3-difluorohexahydro-1H-pyrrolo[2,3-c]pyridin-6(2H)-yl)-2,2-dimethyl-3-oxopropanoic acid] yielded an EC50 in the data set on HBV of 0.21 µM. The midpoint of cytotoxicity in data set [1], the CC50 at 6 days, lay at 30 µM.
The like results for `CCOC(=O)C1=C(CN2CC(F)(F)[C@H]3C(=O)N(CC(C)(C)C(=O)O)CC[C@H]32)NC(c2nccs2)=N[C@H]1c1cccc(F)c1C` (single isomer, unassigned) [Compound I-5, 3-((3aR*,7aR*)-1-(((S)-5-(ethoxycarbonyl)-6-(3-fluoro-2-methylphenyl)-2-(thiazol-2-yl)-3,6-dihydropyrimidin-4-yl)methyl)-3,3-difluoro-4-oxohexahydro-1H-pyrrolo[3,2-c]pyridin-5(6H)-yl)-2,2-dimethylpropanoic acid] were, in that order, 0.048 µM and 47.1 µM.
As to `CCOC(=O)C1=C(CN2CC(F)(F)[C@H]3CN(CC(C)(C)C(=O)O)CC[C@H]32)NC(c2nccs2)=N[C@H]1c1cccc(F)c1C` (single isomer, unassigned) [Compound I-6, 3-((3aS*,7aR*)-1-(((S)-5-(ethoxycarbonyl)-6-(3-fluoro-2-methylphenyl)-2-(thiazol-2-yl)-3,6-dihydropyrimidin-4-yl)methyl)-3,3-difluorohexahydro-1H-pyrrolo[3,2-c]pyridin-5(6H)-yl)-2,2-dimethylpropanoic acid], the EC50 in the data set on HBV came to 0.081 µM. Also, the CC50 at 6 days in data set [1] is 43.4 µM.
The like results for `CCOC(=O)C1=C(CN2CC(F)(F)[C@H]3CN(C(=O)C(C)(C)C(=O)O)CC[C@H]32)NC(c2nccs2)=N[C@H]1c1cccc(F)c1C` [Compound I-4, 3-((cis)-1-(((S)-5-(ethoxycarbonyl)-6-(3-fluoro-2-methylphenyl)-2-(thiazol-2-yl)-3,6-dihydropyrimidin-4-yl)methyl)-3,3-difluorohexahydro-1H-pyrrolo[3,2-c]pyridin-5(6H)-yl)-2,2-dimethyl-3-oxopropanoic acid] were, in that order, 0.081 µM and 34.4 µM.
